Data published in US8629277B2, “Styrenyl 1,2,4-oxadiazole compounds” (Piramal Enterprises Limited, priority 2010, dated 2014).

Experiments:
Format in all cases: cell-based
CRKL protein [1] = assay: Inhibition of phosphorylation of CRKL protein, Western blot, E255V cell line; details: 72 h, FIG. 5, FIG. 6B
Method: (§1) Phospho-CRKL monitoring has been recognized as a prognostic marker in CML patients treated with first and second generation Bcr-Abl inhibitors (Haematologica, 2008, 93, 5, 765-769). The assay was carried out using Western blot analysis according to the reference, Analytical Biochemistry, 1981, 112, 2, 195-203, with certain modifications.
(§2) Western blot analysis was performed to decipher the mechanism of action of compounds of the present invention. […] The cells were incubated in a humidified incubator for 2-4 h at 37° C. Subsequently, cells were treated with respective concentrations of the compounds. Cells were then incubated for 72 h. Following the incubation, cells were harvested, washed with ice-cold phosphate buffered saline (PBS) and lysed with cold Cell Lytic buffer (Sigma Aldrich) supplemented with complete protease inhibitor cocktail (Roche, Germany). The protein extracts were obtained after centrifugation at 14,000 rpm at 4° C. (30 min). Aliquots of the resulting extracts were analyzed for their protein content using Bradford Reagent (Sigma) as per the manufacturer's instructions. Equivalent protein samples (70 μg) were loaded on 10% Tris-glycine gels and resolved at 100 V for 2 h in a buffered solution (24.9 mM Tris base, 250 mM glycine, 0.1% SDS (sodium dodecyl sulfate)). […]

CRKL protein [2] = assay: Inhibition of phosphorylation of CRKL protein, Western blot, M351T cell line; details: FIG. 6B
Method: as §1, §2

CRKL protein [3] = assay: Inhibition of phosphorylation of CRKL protein, Western blot, Y253H cell line; details: FIG. 6B
Method: as §1, §2

CCCc1noc(C=Cc2ccc(O)c(O)c2)n1 [Compound of Example 3, 4-[2-(3-Propyl-[1,2,4]oxadiazol-5-yl)-vinyl]-benzene-1,2-diol]
inhibit: phosphorylation of CRKL protein (Tyr-207) (CRKL protein [1]) | phospho-CRKL (CRKL protein [2]) | phospho-CRKL (CRKL protein [3])
